The data set deals with ATXN2. As to the kind of experiment: mouse, dose not given. The conditions noted are these: ASO.

HELM strings list units from the 5' end as sugar, base in round brackets, then linkage (d deoxyribose, r ribose, m 2'-O-methyl, p phosphodiester). Strings are as the collection lists them; they lack the last nucleoside at the 3' end of the tested compound. [moe] = 2'-O-(2-methoxyethyl) (MOE); [sp] = phosphorothioate linkage; [m5C] = 5-methylcytosine

Consider “RNA1{[moe](A)[sp].[moe]([m5C])p.[moe](A)p.[moe](G)p.[moe](T)p.d(T)[sp].d(T)[sp].d([m5C])[sp].d(A)[sp].d([m5C])[sp].d(T)[sp].d(A)[sp].d(G)[sp].d(G)[sp].d(T)[sp].[moe](T)p.[moe]([m5C])p.[moe](T)[sp].[moe]([m5C])}$$$$ (last 3' nucleoside missing)”, for which the 3 h FOB score was determined as 3.25 score 0-7.
“RNA1{[moe](A)[sp].[moe]([m5C])p.[moe](A)p.[moe](T)p.[moe](A)p.d(G)[sp].d(G)[sp].d(T)[sp].d(T)[sp].d(A)[sp].d(G)[sp].d(A)[sp].d(A)[sp].d(T)[sp].d(T)[sp].[moe](T)p.[moe](T)p.[moe]([m5C])[sp].[moe]([m5C])}$$$$ (last 3' nucleoside missing)” returned a 3 h FOB score of 1 score 0-7.
In turn, “RNA1{[moe](A)[sp].[moe]([m5C])p.[moe](A)p.[moe]([m5C])[sp].[moe](A)[sp].d(G)[sp].d(T)[sp].d(T)[sp].d(T)[sp].d([m5C])[sp].d(A)[sp].d([m5C])[sp].d(T)[sp].d(A)[sp].d(G)[sp].[moe](G)p.[moe](T)p.[moe](T)[sp].[moe]([m5C])}$$$$ (last 3' nucleoside missing)” yielded a 3 h FOB score of 2 score 0-7.
Consider “RNA1{[moe](A)[sp].[moe]([m5C])p.[moe](A)p.[moe]([m5C])p.[moe](A)[sp].d(G)[sp].d(T)[sp].d(T)[sp].d(T)[sp].d([m5C])[sp].d(A)[sp].d([m5C])[sp].d(T)[sp].d(A)[sp].d(G)[sp].[moe](G)p.[moe](T)p.[moe](T)[sp].[moe]([m5C])}$$$$ (last 3' nucleoside missing)”, for which the 3 h FOB score was found to be 4.75 score 0-7.
For “RNA1{[moe](A)[sp].[moe]([m5C])p.[moe](A)p.[moe]([m5C])p.[moe](A)p.[moe](G)p.d(T)[sp].d(T)[sp].d(T)[sp].d([m5C])[sp].d(A)[sp].d([m5C])[sp].d(T)[sp].d(A)[sp].d(G)[sp].d(G)[sp].[moe](T)p.[moe](T)[sp].[moe]([m5C])}$$$$ (last 3' nucleoside missing)”, the 3 h FOB score stood at 1 score 0-7.
Regarding “RNA1{[moe](A)[sp].[moe]([m5C])p.[moe](A)p.[moe]([m5C])p.[moe](A)p.d(G)[sp].d(T)[sp].d(T)[sp].d(T)[sp].d([m5C])[sp].d(A)[sp].d([m5C])[sp].d(T)[sp].d(A)[sp].d(G)[sp].[moe](G)p.[moe](T)p.[moe](T)[sp].[moe]([m5C])}$$$$ (last 3' nucleoside missing)”, the 3 h FOB score worked out at 0 score 0-7.
Next, “RNA1{[moe](A)[sp].[moe]([m5C])p.[moe](A)p.[moe]([m5C])p.d(A)[sp].d(G)[sp].d(T)[sp].d(T)[sp].d(T)[sp].d([m5C])[sp].d(A)[sp].d([m5C])[sp].d(T)[sp].d(A)[sp].[moe](G)p.[moe](G)p.[moe](T)p.[moe](T)[sp].[moe]([m5C])}$$$$ (last 3' nucleoside missing)”: 0 score 0-7; “RNA1{[moe](A)[sp].[moe]([m5C])p.[moe](G)p.[moe]([m5C])p.[moe](G)p.d(G)[sp].d(T)[sp].d(G)[sp].d(A)[sp].d(A)[sp].d(T)[sp].d(T)[sp].d([m5C])[sp].d(T)[sp].d(G)[sp].[moe](T)p.[moe]([m5C])p.[moe](T)[sp].[moe]([m5C])}$$$$ (last 3' nucleoside missing)”: 1 score 0-7; “RNA1{[moe](A)[sp].[moe]([m5C])p.[moe](G)p.[moe]([m5C])p.[moe](T)p.d(G)[sp].d(T)[sp].d(A)[sp].d(T)[sp].d(T)[sp].d(T)[sp].d(T)[sp].d(T)[sp].d(A)[sp].d([m5C])[sp].[moe](T)p.[moe]([m5C])p.[moe](A)[sp].[moe]([m5C])}$$$$ (last 3' nucleoside missing)”: 0 score 0-7.
On to “RNA1{[moe](A)[sp].[moe]([m5C])p.[moe](T)p.[moe](G)p.[moe](A)p.d(G)[sp].d(T)[sp].d(T)[sp].d([m5C])[sp].d(T)[sp].d(A)[sp].d(T)[sp].d(A)[sp].d(G)[sp].d(G)[sp].[moe](T)p.[moe](G)p.[moe]([m5C])[sp].[moe](T)}$$$$ (last 3' nucleoside missing)”, for which the 3 h FOB score came to 3 score 0-7.
Substance “RNA1{[moe](A)[sp].[moe]([m5C])p.[moe](T)p.[moe](G)p.[moe](G)p.d(A)[sp].d(T)[sp].d(T)[sp].d([m5C])[sp].d(T)[sp].d(G)[sp].d(T)[sp].d(A)[sp].d([m5C])[sp].d(T)[sp].[moe](T)p.[moe](T)p.[moe](T)[sp].[moe]([m5C])}$$$$ (last 3' nucleoside missing)” showed a 3 h FOB score of 2 score 0-7.
In turn, “RNA1{[moe](A)[sp].[moe]([m5C])p.[moe](T)p.[moe](G)p.[moe](T)p.d(T)[sp].d(T)[sp].d([m5C])[sp].d(G)[sp].d(A)[sp].d([m5C])[sp].d([m5C])[sp].d(T)[sp].d([m5C])[sp].d(T)[sp].[moe](G)p.[moe](A)p.[moe](A)[sp].[moe](A)}$$$$ (last 3' nucleoside missing)” showed a 3 h FOB score of 4 score 0-7.
On to “RNA1{[moe](A)[sp].[moe]([m5C])p.[moe](T)p.[moe](T)p.[moe](G)p.d(T)[sp].d(A)[sp].d([m5C])[sp].d(T)[sp].d(T)[sp].d([m5C])[sp].d(A)[sp].d([m5C])[sp].d(A)[sp].d(T)[sp].[moe](T)p.[moe](T)p.[moe](G)[sp].[moe](G)}$$$$ (last 3' nucleoside missing)”, for which the 3 h FOB score amounted to 1 score 0-7.
“RNA1{[moe](A)[sp].[moe]([m5C])p.[moe](T)p.[moe](T)p.[moe](T)[sp].d(T)[sp].d([m5C])[sp].d(T)[sp].d([m5C])[sp].d(A)[sp].d(T)[sp].d(G)[sp].d(T)[sp].[moe](G)p.[moe]([m5C])p.[moe](G)[sp].[moe](G)}$$$$ (last 3' nucleoside missing)” returned a 3 h FOB score of 3.25 score 0-7.
In the case of “RNA1{[moe](A)[sp].[moe]([m5C])p.[moe](T)p.[moe](T)p.[moe](T)p.[moe](T)p.d([m5C])[sp].d(T)[sp].d([m5C])[sp].d(A)[sp].d(T)[sp].d(G)[sp].d(T)[sp].d(G)[sp].d([m5C])[sp].d(G)[sp].[moe](G)p.[moe]([m5C])[sp].[moe](A)}$$$$ (last 3' nucleoside missing)”, the 3 h FOB score was 6.5 score 0-7.
“RNA1{[moe](A)[sp].[moe]([m5C])p.[moe](T)p.[moe](T)p.[moe](T)p.d(T)[sp].d([m5C])[sp].d(T)[sp].d([m5C])[sp].d(A)[sp].d(T)[sp].d(G)[sp].d(T)[sp].d(G)[sp].d([m5C])[sp].[moe](G)p.[moe](G)p.[moe]([m5C])[sp].[moe](A)}$$$$ (last 3' nucleoside missing)” displayed a 3 h FOB score of 5 score 0-7.
“RNA1{[moe](A)[sp].[moe]([m5C])p.[moe](T)p.[moe](T)p.[moe]([m5C])[sp].d(T)[sp].d([m5C])[sp].d(T)[sp].d(A)[sp].d(T)[sp].d(T)[sp].d(T)[sp].d([m5C])[sp].[moe](T)p.[moe](T)p.[moe](T)[sp].[moe](G)}$$$$ (last 3' nucleoside missing)” had a 3 h FOB score of 2 score 0-7.
“RNA1{[moe](A)[sp].[moe]([m5C])p.[moe](T)p.[moe](T)p.[moe]([m5C])p.[moe](T)p.d([m5C])[sp].d(T)[sp].d(A)[sp].d(T)[sp].d(T)[sp].d(T)[sp].d([m5C])[sp].d(T)[sp].d(T)[sp].d(T)[sp].[moe](G)p.[moe](T)[sp].[moe]([m5C])}$$$$ (last 3' nucleoside missing)” registered a 3 h FOB score of 1.25 score 0-7.

These data come from the OligoGym collection.
